“Also recorded” adds a separate entry of the source.

Results on four compounds are retold here after patent US5854036A, “Sesquiteterpenic dervatives” (Gruppo Lepetit S.p.A., priority 1994, dated 1998).

Data set [1] has as its target T1, inositol monophosphatase (EC 3.1.3.25) (Bos taurus, UniProt P20456).
T1 construct: host or cells: animal brain or recombinant E. coli expressing animal IMPase
T1 sequence (P20456 1-277): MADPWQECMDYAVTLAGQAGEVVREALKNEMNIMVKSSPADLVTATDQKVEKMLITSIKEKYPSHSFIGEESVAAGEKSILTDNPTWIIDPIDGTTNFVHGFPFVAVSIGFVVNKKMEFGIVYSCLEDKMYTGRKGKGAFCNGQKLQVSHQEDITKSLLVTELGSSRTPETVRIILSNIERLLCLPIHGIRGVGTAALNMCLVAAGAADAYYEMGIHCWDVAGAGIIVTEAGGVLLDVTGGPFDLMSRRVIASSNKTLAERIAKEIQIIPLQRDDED
The data set can be described thus: inhibition of inositol monophosphatase (IMPase, EC 3.1.3.25); phosphate liberated from 4 mM 2-glycerolphosphate, molybdate coloration. Type of data set: biochemical, animal. To be noted: for IC50: Table 1, pH 7.5, 4 mM 2-glycerolphosphate, 5 ug/ml IMPase, 30 minutes, read-out: IC50 (amount of inhibitor required to inhibit the enzyme activity by 50%) (converted). The source says: For determining said activity, IMPase with a purity higher than 90% as judged by SDS-PAGE (sodium dodecyl sulphate polyacrylamide gel electrophoresis) is purified as described in P. D. Pelton and A. J.
Ganzhorn, Journal Biolog. Chem., 267, 1992, pp. 5916-5920. The enzyme can be purified from animal brain or from recombinant E. coli strains expressing animal IMPase. Although crude enzyme preparations can also be used it is preferable to use purified enzyme. The purified enzyme routinely has a specific activity of 25 μmol of Pi/min/mg of protein as determined in a standard assay (P. V. Attwood et al., Biochem. Jour., 1988, 253, pp. 387-394) with 4 mH 2-glycerolphosphate as substrate.
The enzyme activity may be determined according to A. J. Ganzhorn and M. C. Chanal, Biochem., 1990, 29; the reaction mixture contains 50mM Tris-HCl, pH 7.5, 2 mM magnesium chloride and 0.1 mM EGTA. Then, 5 ug/ml of IMPase and 4 mM of 2-glycerolphosphate substrate are added to the reaction mixture; alternatively, it is also possible to add the substrate directly into the reaction mixture, before adding the enzyme.
The reaction is considered terminated after 30 minutes from the addition of the substrate or the enzyme (depending on which one is added later); the liberated phosphate is determined by molybdate coloration (P. V. Attwood et al., Biochem. Jour., 1988, 253, pp. 387-394) at 350 nm with a Shimadzu spectrophotometer UV 2100.
The enzyme reaction is performed either in the absence or in the presence of various concentrations of 6'β-Stachybotrydial or MDL63394 to determine the amount of inhibitor required to inhibit the enzyme activity by 50% (IC50); the results are reported in Table 1, compared with the activity of L-671,776.

Data set [2] has as its system inositol monophosphatase. To be noted: literature statement; cited from earlier work.
Data set [3] has as its system complement system. To be noted: literature statement; cited from earlier work.
For data set [4] the following is noted: cited from earlier work.
For data set [5], the system named is manic symptoms / bipolar disorder. The following applies: cited from earlier work.

`CC1CCC2C(C)(C)C(O)CCC2(C)C12Cc1c(O)cc(CO)c(C=O)c1O2` [L-671,776]: in data set [1], the IC50 is 463 µM. Further, in data set [2], the IMPase-inhibiting activity entry is given as “shows the above IMPase-inhibiting activity”.

As to `C[C@@H]1CCC2C(C)(C)[C@H](O)C(O)C[C@]2(C)[C@@]12Cc1c(O)cc(C=O)c(C=O)c1O2` (stereo partly shown) [K-76], the “inhibitor of the complement system” value in data set [3] is listed as “inhibitor of the complement system”.

Regarding lithium, the adverse effects result in data set [4] (lithium therapy) is “can cause a transient leukocytosis, can cause patients with a borderline thyroid reserve to become clinically hypothyroid, and can decompensate cardiac status due to shifts in fluids and electrolytes; also recorded: Structural lesions in kidney, such as interstitial fibrosis, tubular atrophy and glomerular sclerosis; also recorded: tremor, weight gain, diarrhea and skin rash”. Also, in data set [4] (treated patients), the “occurrence of polyuria-polydipsia syndrome” value was “up to 60%”. For the same compound, in data set [5] (acute bipolar disorder), the “time to exert antimanic effect” value was 7 to 10 days. The “antimanic / prophylactic effect” value in data set [5] (manic patients) was “highly specific in alleviating manic symptoms; also recorded: clear prophylaxis against disease recurrences and deterioration has been demonstrated”. Besides, in data set [2], the IMPase-inhibiting activity result is reported as “inhibits the activity of said enzyme”.

As to `C[C@@H]1CCC2C(C)(C)[C@@H](O)CC[C@]2(C)[C@@]12Cc1c(O)cc(C=O)c(C=O)c1O2` (stereo partly drawn) [6'β-Stachybotrydial], the IC50 in data set [1] was 64.7 µM. Moreover, the “inhibitory activity against the enzyme inositol monophosphatase” value in data set [1] (qualitative statement) is “show inhibitory activity”.

Broadly, the IC50 is the point on the concentration scale where inhibition reaches its midpoint.
